{"source": "ChEMBL document CHEMBL4765450", "about": "“The components and activities analysis of a novel anticoagulant candidate dHG-5” (Eur J Med Chem, 2020)", "key": {"[1]": {"tested_on": "Plasma", "test": "Induction of platelet aggregation in human platelet rich plasma at plasma peak concentration of 10 times anti-thrombosis ED50 measured after 10 mins by light transmission aggregometry"}, "[2]": {"target": "Coagulation factor IX/VIII (Homo sapiens, UniProt P00451+P00740)", "sequence (P00451 20-759 limits assumed)": "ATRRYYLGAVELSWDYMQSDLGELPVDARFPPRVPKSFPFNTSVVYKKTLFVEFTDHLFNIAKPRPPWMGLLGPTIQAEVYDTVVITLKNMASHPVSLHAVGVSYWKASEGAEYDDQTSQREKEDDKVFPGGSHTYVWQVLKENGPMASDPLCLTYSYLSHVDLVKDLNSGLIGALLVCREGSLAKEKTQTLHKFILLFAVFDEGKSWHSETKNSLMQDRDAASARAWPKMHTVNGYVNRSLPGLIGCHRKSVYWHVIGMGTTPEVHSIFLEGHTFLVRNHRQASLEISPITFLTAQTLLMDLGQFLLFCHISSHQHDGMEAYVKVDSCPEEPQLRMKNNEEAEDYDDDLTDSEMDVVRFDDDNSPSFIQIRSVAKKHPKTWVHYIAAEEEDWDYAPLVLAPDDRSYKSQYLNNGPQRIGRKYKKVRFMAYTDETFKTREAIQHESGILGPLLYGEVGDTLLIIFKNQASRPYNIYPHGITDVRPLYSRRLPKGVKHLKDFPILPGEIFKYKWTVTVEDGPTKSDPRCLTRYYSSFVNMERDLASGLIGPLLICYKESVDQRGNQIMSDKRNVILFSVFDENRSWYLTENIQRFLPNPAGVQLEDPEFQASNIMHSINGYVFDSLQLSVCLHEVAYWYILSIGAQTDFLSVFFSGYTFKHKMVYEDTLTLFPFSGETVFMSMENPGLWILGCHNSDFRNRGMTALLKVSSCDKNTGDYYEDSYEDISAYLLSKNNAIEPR", "sequence (P00451 1668-2351 limits assumed)": "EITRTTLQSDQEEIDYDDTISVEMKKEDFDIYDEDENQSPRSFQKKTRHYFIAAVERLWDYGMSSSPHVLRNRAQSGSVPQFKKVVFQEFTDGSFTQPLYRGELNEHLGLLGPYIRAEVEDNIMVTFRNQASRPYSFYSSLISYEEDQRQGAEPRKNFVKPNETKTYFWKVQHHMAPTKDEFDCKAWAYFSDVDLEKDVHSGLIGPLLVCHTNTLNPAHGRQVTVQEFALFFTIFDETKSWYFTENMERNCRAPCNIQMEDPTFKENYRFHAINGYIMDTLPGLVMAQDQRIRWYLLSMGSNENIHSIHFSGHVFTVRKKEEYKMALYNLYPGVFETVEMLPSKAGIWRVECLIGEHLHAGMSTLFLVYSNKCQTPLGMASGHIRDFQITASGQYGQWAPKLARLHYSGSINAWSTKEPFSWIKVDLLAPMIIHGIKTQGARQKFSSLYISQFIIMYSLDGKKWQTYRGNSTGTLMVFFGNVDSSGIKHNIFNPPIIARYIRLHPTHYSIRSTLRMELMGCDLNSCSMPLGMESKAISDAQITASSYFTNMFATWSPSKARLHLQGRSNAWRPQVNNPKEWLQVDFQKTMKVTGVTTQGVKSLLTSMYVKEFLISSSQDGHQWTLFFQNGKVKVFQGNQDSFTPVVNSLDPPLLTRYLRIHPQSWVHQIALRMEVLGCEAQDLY", "sequence (P00740 47-191 limits assumed)": "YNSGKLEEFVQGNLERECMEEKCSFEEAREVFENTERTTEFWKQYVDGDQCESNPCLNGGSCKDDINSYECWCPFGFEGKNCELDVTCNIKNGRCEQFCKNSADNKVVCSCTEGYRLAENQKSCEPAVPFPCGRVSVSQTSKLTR", "sequence (P00740 227-461 limits assumed)": "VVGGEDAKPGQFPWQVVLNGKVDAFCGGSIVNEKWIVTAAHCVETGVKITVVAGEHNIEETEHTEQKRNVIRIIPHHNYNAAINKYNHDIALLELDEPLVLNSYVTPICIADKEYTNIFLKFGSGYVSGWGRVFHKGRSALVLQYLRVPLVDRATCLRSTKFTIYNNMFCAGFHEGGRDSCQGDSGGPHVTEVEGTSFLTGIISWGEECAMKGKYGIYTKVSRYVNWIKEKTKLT", "test": "Inhibition of human citrated plasma iXase (factor 8a-factor 9a complex) preincubated for 2 mins followed by factor 10 addition and measured after 1 min by FXa chromogenic substrate SXa-11 based assay", "type": "protein-complex assay"}, "[3]": {"target": "Coagulation factor IX (Homo sapiens, UniProt P00740)", "sequence (P00740 47-191 limits assumed)": "as the sequence (P00740 47-191 limits assumed) above", "sequence (P00740 227-461 limits assumed)": "as the sequence (P00740 227-461 limits assumed) above", "test": "Inhibition of factor 9a (unknown origin) binding to immobilized biotinylated oHG-11 by biolayer interferometry"}, "[4]": {"target": "Prothrombin (Homo sapiens) (UniProt P00734)", "test": "Inhibition of factor 2a (unknown origin) at IC50 preincubated for 1 min followed by chromogenic substrate addition and measured for 2 mins", "details": "time 3.0 min"}, "[5]": {"target": "T1, Coagulation factor VII (Homo sapiens) (UniProt P08709)", "T1 sequence (whole entry)": "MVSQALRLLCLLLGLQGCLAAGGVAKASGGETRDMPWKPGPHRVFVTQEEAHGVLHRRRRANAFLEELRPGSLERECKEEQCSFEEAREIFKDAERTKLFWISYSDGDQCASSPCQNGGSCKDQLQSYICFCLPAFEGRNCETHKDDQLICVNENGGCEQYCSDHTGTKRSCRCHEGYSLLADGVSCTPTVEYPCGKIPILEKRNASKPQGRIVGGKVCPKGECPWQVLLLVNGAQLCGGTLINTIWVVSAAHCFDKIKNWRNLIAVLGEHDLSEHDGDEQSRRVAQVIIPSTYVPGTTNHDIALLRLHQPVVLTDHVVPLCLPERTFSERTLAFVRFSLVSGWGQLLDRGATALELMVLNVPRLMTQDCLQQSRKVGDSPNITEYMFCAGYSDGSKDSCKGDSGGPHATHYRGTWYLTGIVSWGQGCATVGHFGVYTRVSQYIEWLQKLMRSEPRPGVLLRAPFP", "test": "Inhibition of factor 7a (unknown origin) at IC50 using pefachrome factor VIIa as substrate preincubated for 1 min followed by chromogenic substrate addition and measured for 2 mins", "details": "time 3.0 min"}, "[6]": {"target": "Coagulation factor X (Homo sapiens) (UniProt P00742)", "sequence (P00742 41-179 limits assumed)": "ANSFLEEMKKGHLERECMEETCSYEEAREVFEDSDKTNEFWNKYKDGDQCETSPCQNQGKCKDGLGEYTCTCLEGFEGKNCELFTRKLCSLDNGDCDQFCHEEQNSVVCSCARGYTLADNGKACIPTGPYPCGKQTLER", "sequence (P00742 235-488 limits assumed)": "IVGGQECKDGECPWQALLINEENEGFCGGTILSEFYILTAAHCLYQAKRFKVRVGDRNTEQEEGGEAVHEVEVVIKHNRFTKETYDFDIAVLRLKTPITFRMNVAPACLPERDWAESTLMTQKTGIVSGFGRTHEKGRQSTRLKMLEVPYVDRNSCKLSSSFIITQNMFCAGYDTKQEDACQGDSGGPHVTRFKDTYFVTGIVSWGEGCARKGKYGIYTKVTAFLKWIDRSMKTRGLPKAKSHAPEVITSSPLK", "test": "Inhibition of factor 10a (unknown origin) at IC50 preincubated for 1 min followed by chromogenic substrate addition and measured for 2 mins", "details": "time 3.0 min"}, "[7]": {"target": "T2, Coagulation factor XII (Homo sapiens) (UniProt P00748)", "T2 sequence (whole entry)": "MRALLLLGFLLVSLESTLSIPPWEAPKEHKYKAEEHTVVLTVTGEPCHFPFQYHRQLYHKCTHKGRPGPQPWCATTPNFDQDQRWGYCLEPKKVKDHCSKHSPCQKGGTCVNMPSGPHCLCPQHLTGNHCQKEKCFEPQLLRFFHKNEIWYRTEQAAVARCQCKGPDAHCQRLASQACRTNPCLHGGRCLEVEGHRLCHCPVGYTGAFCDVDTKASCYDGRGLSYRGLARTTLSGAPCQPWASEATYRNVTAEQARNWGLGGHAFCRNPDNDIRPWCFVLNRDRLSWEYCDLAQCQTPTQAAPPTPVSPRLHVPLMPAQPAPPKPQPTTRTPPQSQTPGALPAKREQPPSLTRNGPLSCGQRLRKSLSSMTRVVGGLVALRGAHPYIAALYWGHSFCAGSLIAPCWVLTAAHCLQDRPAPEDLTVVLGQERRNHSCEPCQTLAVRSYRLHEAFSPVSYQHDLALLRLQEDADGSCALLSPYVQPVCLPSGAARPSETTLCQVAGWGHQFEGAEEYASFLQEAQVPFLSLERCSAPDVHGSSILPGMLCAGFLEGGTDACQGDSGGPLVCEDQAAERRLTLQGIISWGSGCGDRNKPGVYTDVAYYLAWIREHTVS", "test": "Inhibition of factor 12a (unknown origin) at IC50 using kallikrein chromogenic substrate preincubated for 1 min followed by chromogenic substrate addition and measured for 2 mins", "details": "time 3.0 min"}, "[8]": {"target": "Prothrombin (Homo sapiens) (UniProt P00734)", "test": "Inhibition of factor 2a (unknown origin) at IC50 preincubated for 1 min followed by chromogenic substrate addition and measured for 2 mins in presence of AT-III", "details": "time 3.0 min"}, "[9]": {"target": "T1, Coagulation factor VII (Homo sapiens)", "test": "Inhibition of factor 7a (unknown origin) at IC50 using pefachrome factor VIIa as substrate preincubated for 1 min followed by chromogenic substrate addition and measured for 2 mins in presence of AT-III", "details": "time 3.0 min"}, "[10]": {"target": "T2, Coagulation factor XII (Homo sapiens)", "test": "Inhibition of factor 12a (unknown origin) at IC50 using kallikrein chromogenic substrate preincubated for 1 min followed by chromogenic substrate addition and measured for 2 mins in presence of AT-III", "details": "time 3.0 min"}, "[11]": {"target": "Prothrombin (Homo sapiens) (UniProt P00734)", "test": "Inhibition of factor 2a (unknown origin) at IC90 preincubated for 1 min followed by chromogenic substrate addition and measured for 2 mins in presence of AT-III", "details": "time 3.0 min"}, "[12]": {"target": "Coagulation factor XI (Homo sapiens) (UniProt P03951)", "sequence (P03951 19-387 limits assumed)": "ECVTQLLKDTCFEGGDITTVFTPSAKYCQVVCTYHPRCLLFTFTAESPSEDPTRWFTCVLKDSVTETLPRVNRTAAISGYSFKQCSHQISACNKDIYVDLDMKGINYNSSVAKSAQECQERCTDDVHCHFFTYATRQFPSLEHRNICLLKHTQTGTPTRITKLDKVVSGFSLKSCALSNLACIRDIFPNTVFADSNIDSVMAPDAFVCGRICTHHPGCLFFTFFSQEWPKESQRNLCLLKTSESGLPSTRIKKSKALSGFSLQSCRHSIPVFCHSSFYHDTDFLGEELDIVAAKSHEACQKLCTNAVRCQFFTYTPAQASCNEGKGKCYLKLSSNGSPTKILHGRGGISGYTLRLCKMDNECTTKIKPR", "sequence (P03951 388-625 limits assumed)": "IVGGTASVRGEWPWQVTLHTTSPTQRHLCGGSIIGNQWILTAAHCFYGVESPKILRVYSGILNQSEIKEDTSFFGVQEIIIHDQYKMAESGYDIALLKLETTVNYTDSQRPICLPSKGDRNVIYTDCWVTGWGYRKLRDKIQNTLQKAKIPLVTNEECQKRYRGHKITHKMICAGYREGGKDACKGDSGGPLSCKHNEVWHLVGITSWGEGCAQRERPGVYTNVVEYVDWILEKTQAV", "test": "Inhibition of factor 11a (unknown origin) at IC90 using S-2366 as substrate preincubated for 1 min followed by chromogenic substrate addition and measured for 2 mins in presence of AT-III", "details": "time 3.0 min"}, "[13]": {"tested_on": "Plasma", "test": "Anticoagulation activity in human plasma assessed as drug level causing 20 times doubling of APTT preincubated for 2 mins followed by APTT reagent and measured after 3 mins by coagulometric method", "type": "functional", "details": "time 5 min"}, "[14]": {"tested_on": "Plasma", "test": "Anticoagulation activity in AT-III-deficient human plasma preincubated for 2 mins followed by APTT reagent and measured after 3 mins by coagulometric method", "type": "functional, cell-free", "details": "time 5.0 min"}, "[15]": {"tested_on": "Rattus norvegicus", "test": "Antithrombotic activity in thromboplastin and stasis-induced Sprague-Dawley rat deep venous thrombosis model assessed as reduction in venous thrombosis administered subcutaneously 1 hr prior to thromboplastin addition for 20 secs followed by establishment of stasis for 20 mins", "type": "functional", "details": "time 80.33 min"}, "[16]": {"tested_on": "Plasma", "test": "Induction of platelet aggregation in rat wash platelet at plasma peak concentration of 10 times anti-thrombosis ED50 measured after 10 mins by light transmission aggregometry"}, "[17]": {"tested_on": "Mus musculus", "test": "Anticoagulation activity in Kunming mouse assessed as APTT-prolonging effect by measuring time for maximum effect at 1.7 mg/kg, sc measured after 0.5 to 8 hrs by APTT reagent based assay", "type": "functional", "details": "time 0.5-8 hrs"}, "[18]": {"test": "MRT (0 to 8 hrs) in Kunming mouse at 1.7 mg/kg, sc", "type": "ADME, organism-based", "details": "in vivo"}, "[19]": {"test": "Half life in Kunming mouse at 1.7 mg/kg, sc", "type": "ADME, organism-based", "details": "in vivo"}, "[20]": {"tested_on": "Mus musculus", "test": "Anticoagulation activity in Kunming mouse assessed as APTT-prolonging effect by measuring time for maximum effect at 5.11 mg/kg, sc measured after 0.5 to 8 hrs by APTT reagent based assay", "type": "functional", "details": "time 0.5-8 hrs"}, "[21]": {"test": "Tmax in Kunming mouse at 5.11 mg/kg, sc", "type": "ADME, organism-based", "details": "in vivo"}, "[22]": {"test": "MRT (0 to infinity) in Kunming mouse at 5.11 mg/kg, sc", "type": "ADME, organism-based", "details": "in vivo"}, "[23]": {"test": "Half life in Kunming mouse at 5.11 mg/kg, sc", "type": "ADME, organism-based", "details": "in vivo"}, "[24]": {"test": "MRT (0 to 8 hrs) in Kunming mouse at 15.3 mg/kg, sc", "type": "ADME, organism-based", "details": "in vivo"}, "[25]": {"test": "MRT (0 to infinity) in Kunming mouse at 15.3 mg/kg, sc", "type": "ADME, organism-based", "details": "in vivo"}, "[26]": {"test": "Half life in Kunming mouse at 15.3 mg/kg, sc", "type": "ADME, organism-based", "details": "in vivo"}}, "note": "Active and inactive are the calls of the source. The calls are words filed in the database; no cut-off is given here.", "data": [{"smiles": "CC(=O)N[C@H]1[C@H](O[C@H]2[C@H](O[C@@H]3O[C@@H](C)[C@@H](OS(=O)(=O)[O-])[C@@H](O)[C@@H]3OS(=O)(=O)O)[C@@H](O)[C@H](O[C@H]3[C@@H](NC(C)=O)[C@H](O[C@H]4[C@H](O[C@@H]5O[C@@H](C)[C@@H](OS(=O)(=O)[O-])[C@@H](O)[C@@H]5OS(=O)(=O)O)[C@@H](O)[C@H](O[C@H]5[C@@H](NC(C)=O)[C@H](O[C@H]6[C@H](O[C@@H]7O[C@@H](C)[C@@H](OS(=O)(=O)[O-])[C@@H](O)[C@@H]7OS(=O)(=O)O)[C@@H](O)[C@H](O[C@H]7[C@@H](NC(C)=O)[C@H](O[C@H]8[C@H](O[C@@H]9O[C@@H](C)[C@@H](OS(=O)(=O)[O-])[C@@H](O)[C@@H]9OS(=O)(=O)O)[C@@H](O)[C@H](O[C@H]9[C@@H](NC(C)=O)[C@H](O[C@@H]([C@H](O[C@@H]%10O[C@@H](C)[C@@H](OS(=O)(=O)[O-])[C@@H](O)[C@@H]%10OS(=O)(=O)O)[C@@H](O)CO)[C@H](O)C(=O)[O-])O[C@H](COS(=O)(=O)[O-])[C@@H]9OS(=O)(=O)[O-])O[C@@H]8C(=O)[O-])O[C@H](COS(=O)(=O)[O-])[C@@H]7OS(=O)(=O)[O-])O[C@@H]6C(=O)[O-])O[C@H](COS(=O)(=O)[O-])[C@@H]5OS(=O)(=O)[O-])O[C@@H]4C(=O)[O-])O[C@H](COS(=O)(=O)[O-])[C@@H]3OS(=O)(=O)[O-])O[C@@H]2C(=O)[O-])O[C@H](COS(=O)(=O)[O-])[C@H](OS(=O)(=O)[O-])[C@@H]1O[C@@H]1OC(C(=O)[O-])=C[C@H](O[C@@H]2O[C@@H](C)[C@@H](OS(=O)(=O)[O-])[C@@H](O)[C@@H]2OS(=O)(=O)O)[C@H]1O.[Na+].[Na+].[Na+].[Na+].[Na+].[Na+].[Na+].[Na+].[Na+].[Na+].[Na+].[Na+].[Na+].[Na+].[Na+].[Na+].[Na+].[Na+].[Na+].[Na+].[Na+].[Na+]", "values": [{"measurement": "Activity", "setting": "[1]", "result": "Not Active"}, {"measurement": "IC50", "setting": "[2]", "result": 14, "unit": "nM"}, {"measurement": "IC50", "setting": "[3]", "result": 430, "unit": "nM"}, {"measurement": "inhibition", "setting": "[4]", "result": "inactive"}, {"measurement": "inhibition (active/not active)", "setting": "[5]", "result": "inactive"}, {"measurement": "inhibition", "setting": "[6]", "result": "inactive"}, {"measurement": "inhibition", "setting": "[7]", "result": "inactive"}, {"measurement": "inhibition", "setting": "[8]", "result": "inactive"}, {"measurement": "inhibition", "setting": "[9]", "result": "inactive"}, {"measurement": "inhibition", "setting": "[10]", "result": "inactive"}, {"measurement": "inhibition", "setting": "[11]", "result": "Active"}, {"measurement": "inhibition", "setting": "[12]", "result": "Active"}, {"measurement": "EC", "setting": "[13]", "result": 1.79, "unit": "µM"}, {"measurement": "Activity", "setting": "[14]", "result": "Active"}, {"measurement": "ED50", "setting": "[15]; sc, 1.339 h", "result": 2.38, "unit": "mg/kg"}, {"measurement": "Activity", "setting": "[15]", "result": "Dose-dependent effect"}, {"measurement": "Activity", "setting": "[16]", "result": "Not Active"}, {"measurement": "Emax", "setting": "[17]", "result": 4.39, "unit": "s"}, {"measurement": "MRT last", "setting": "[18]", "result": 1.99, "unit": "h"}, {"measurement": "half-life", "setting": "[19]", "result": 1.09, "unit": "h"}, {"measurement": "Emax", "setting": "[20]", "result": 7.68, "unit": "s"}, {"measurement": "Tmax", "setting": "[21]", "result": 0.75, "unit": "h"}, {"measurement": "MRT inf", "setting": "[22]", "result": 1.52, "unit": "h"}, {"measurement": "half-life", "setting": "[23]", "result": 0.563, "unit": "h"}, {"measurement": "MRT last", "setting": "[24]", "result": 1.66, "unit": "h"}, {"measurement": "MRT inf", "setting": "[25]", "result": 1.71, "unit": "h"}, {"measurement": "half-life", "setting": "[26]", "result": 0.564, "unit": "h"}]}]}
